Data taken from patent US20240327334A1, “Covalent Inhibitors As Antiviral Agents” (Enanta Pharmaceuticals, Inc., priority 2022, published 2024).

Key:
[1] = biological target: SARS-CoV-2 Papain-like (PLpro) protease (Severe acute respiratory syndrome coronavirus 2, UniProt P0DTD1); assay: SARS-CoV-2 Papain-like (PLpro) protease biochemical enzyme inhibition assay (ubiquitin-fluorophore substrate, Ub-R110); details: Ub-R110 substrate; run in duplicate; read-out: PLpro IC50
SARS-CoV-2 replicon = assay: microbe, parasite or virus in culture; assay type: cell-based; details: Severe acute respiratory syndrome coronavirus 2, Huh-7

SMILES | IC50 [1] | EC50 (SARS-CoV-2 replicon)
CN(C)S(=O)(=O)n1cc(-c2cc(C3(NC(=O)c4ccccc4CNC(=O)C(=O)NCC#N)CC3)c3ccccc3c2)cn1 [Example 355] | < 0.1 µM | < 1 µM
CN1CCC(n2cc(-c3cc(F)cc(C4(NC(=O)c5ccccc5CNC(=O)C(=O)NCC#Cc5nccs5)CC4)c3)cn2)CC1 [Example 255] | < 0.1 µM | < 1 µM
C[C@@H](NC(=O)c1ccccc1CNC(=O)C(=O)NCC#N)c1cccc2ccccc12 [Example 6] | < 0.1 µM | 1 to 10 µM
N#CCNC(=O)C(=O)NCc1ccccc1C(=O)NC1(c2cc(Cl)cc(-c3cnn(C(F)F)c3)c2)CC1 [Example 456] | < 0.1 µM | 1 to 10 µM
COC(=O)/C=C/CNC(=O)C(=O)NCc1ccccc1C(=O)N[C@H](C)c1cc(-c2cnn(C(F)F)c2)cc(C(F)(F)F)c1 [Example 462] | < 0.1 µM | < 1 µM
N#CCNC(=O)C(=O)NCc1ccccc1C(=O)NC1(c2cc(Cl)cc(Br)c2)CC1 [Example 455] | 0.1 to 1 µM | > 10 µM
CCOc1cccnc1C#CCNC(=O)C(=O)NCc1ccccc1C(=O)NC1(c2ccc3ccccc3c2)CC1 [Example 200] | < 0.1 µM | < 1 µM
O=C(NCC#Cc1ccc(F)cn1)C(=O)NCc1ccccc1C(=O)NC1(c2cc(-c3cnn(C4CC4)c3)cc(C3CC3)c2)CC1 [Example 135] | < 0.1 µM | < 1 µM
O=C(NCC#CC(=O)N1CCCO1)C(=O)NCc1ccccc1C(=O)NC1(c2cccc3ccccc23)CC1 [Example 526] | < 0.1 µM | < 1 µM
CC[C@@H](C#Cc1nccs1)NC(=O)C(=O)NCc1ccccc1C(=O)NC1(c2ccc3nn(C)cc3c2)CC1 [Example 146] | < 0.1 µM | < 1 µM
Cn1cnc(C#CCNC(=O)C(=O)NCc2ccccc2C(=O)NC2(c3ccc4ccccc4c3)CC2)n1 [Example 398] | < 0.1 µM | < 1 µM
O=C(NCC#Cc1ncccc1Cl)C(=O)NCc1ccccc1C(=O)NC1(c2cc(F)cc(-c3cnn(C4CC4)c3)c2)CC1 [Example 263] | < 0.1 µM | < 1 µM
Cc1nn(C2CC2)c(C)c1-c1cc(Cl)cc(C2(NC(=O)c3ccccc3CNC(=O)C(=O)NCC#N)CC2)c1 [Example 130] | < 0.1 µM | 1 to 10 µM
Cc1nn(C)cc1-c1cc(F)cc(C2(NC(=O)c3ccccc3CNC(=O)C(=O)NCC#Cc3ncccc3Cl)CC2)c1 [Example 259] | < 0.1 µM | < 1 µM
N#CCNC(=O)C(=O)NCc1ccccc1C(=O)NC1(c2cc(F)cc(-c3cnn(C4CC4)c3)c2)CC1 [Example 222] | < 0.1 µM | > 10 µM
N#CCNC(=O)C(=O)NCc1ccccc1C(=O)NC1(c2ccc3c4c(cccc24)C(=O)N3)CC1 [Example 434] | < 0.1 µM | 1 to 10 µM
CC(C)(O)c1ncc(-c2cc(C3(NC(=O)c4ccccc4CNC(=O)C(=O)NCC#N)CC3)c3ccccc3c2)s1 [Example 287] | < 0.1 µM | < 1 µM
CC(C)[C@@H](C#Cc1nccs1)NC(=O)C(=O)NCc1ccccc1C(=O)NC1(c2ccc3nn(C)cc3c2)CC1 [Example 97] | 0.1 to 1 µM | < 1 µM
O=C(NCC#Cc1nccs1)C(=O)NCc1ccccc1C(=O)NC1(c2cc(F)cc(C(=O)Nc3ccc(F)cc3F)c2)CC1 [Example 82] | < 0.1 µM | < 1 µM
O=C(NC/C=C/C(=O)N1CC[C@@H](O)C1)C(=O)NCc1ccccc1C(=O)NC1(c2cccc3ccccc23)CC1 [Example 563] | < 0.1 µM | > 10 µM
N#CN1CC[C@H](C(=O)NCc2ccccc2C(=O)NC2(c3cc(-c4cnn(C5CC5)c4)cc4ncccc34)CC2)C1 [Example 419] | < 0.1 µM | < 1 µM

SMILES | IC50 [1] | EC50 (SARS-CoV-2 replicon)
COc1cccnc1C#C[C@H](C)NC(=O)C(=O)NCc1ccccc1C(=O)NC1(c2ccc3nn(C)cc3c2)CC1 [Example 273] | < 0.1 µM | < 1 µM
C#CCNC(=O)C(=O)NCc1ccccc1C(=O)NC1(c2cc(C#N)cc(-c3cccs3)c2)CC1 [Example 128] | < 0.1 µM | < 1 µM
COC(=O)/C=C/CNC(=O)C(=O)NCc1cc(F)c(F)cc1C(=O)N[C@H](C)c1cccc2ccccc12 [Example 362] | < 0.1 µM | < 1 µM
CS(=O)(=O)n1cc(-c2cc(C3(NC(=O)c4ccccc4CNC(=O)C(=O)NCC#N)CC3)c3ccccc3c2)cn1 [Example 356] | < 0.1 µM | 1 to 10 µM
C=C(C)c1ccc(-c2cc(C3(NC(=O)c4ccccc4CNC(=O)[C@H]4CCN(C#N)C4)CC3)c3ccccc3c2)s1 [Example 418] | < 0.1 µM | < 1 µM
O=C(NCC#Cc1nccs1)C(=O)NCc1ccccc1C(=O)NC1(c2cc3ccccc3cn2)CC1 [Example 394] | < 0.1 µM | < 1 µM
N#CCNC(=O)C(=O)NCc1ccccc1C(=O)NC1(c2cc(-c3cnn(C(F)F)c3)cc3ccccc23)CC1 [Example 285] | < 0.1 µM | < 1 µM
N#CCNC(=O)C(=O)NCc1ccccc1C(=O)NC1(c2cc(Cl)cc(-n3cccn3)c2)CC1 [Example 480] | < 0.1 µM | 1 to 10 µM
O=C(/C=C/CNC(=O)C(=O)NCc1ccccc1C(=O)NC1(c2cccc3ccccc23)CC1)NCC(F)(F)F [Example 572] | 0.1 to 1 µM | > 10 µM
Cc1nn(C)cc1-c1cc(Cl)cc(C2(NC(=O)c3ccccc3CNC(=O)C(=O)NCC#Cc3nccs3)CC2)c1 [Example 486] | < 0.1 µM | < 1 µM
O=C(NCC#Cc1ccc(C(F)(F)F)cn1)C(=O)NCc1ccccc1C(=O)NC1(c2ccc3ccccc3c2)CC1 [Example 189] | < 0.1 µM | < 1 µM
O=C(NCC#Cc1nc2ccccc2s1)C(=O)NCc1ccccc1C(=O)NC1(c2ccc3ccccc3c2)CC1 [Example 177] | 0.1 to 1 µM | 1 to 10 µM
O=C(C#CCNC(=O)C(=O)NCc1ccccc1C(=O)NC1(c2cccc3ccccc23)CC1)N[C@H]1CC[C@H](C(F)(F)F)CC1 [Example 520] | < 0.1 µM | < 1 µM
N#CCNC(=O)C(=O)NCc1ccccc1C(=O)NC1(c2cccc3c(C#N)cccc23)CC1 [Example 308] | < 0.1 µM | < 1 µM
CN1CCC1COc1ccc(CNC(=O)C(=O)NCC#N)c(C(=O)NC2(c3cccc4ccccc34)CC2)c1 (stereo not drawn) [Example 331] | < 0.1 µM | < 1 µM
N#Cc1ccc(C#CCNC(=O)C(=O)NCc2ccccc2C(=O)NC2(c3ccc4ccccc4c3)CC2)cc1 [Example 171] | < 0.1 µM | < 1 µM
O=C(NCC#Cc1nccs1)C(=O)NCc1ccccc1C(=O)NC1(c2cc(Cl)cc(-c3ccccc3F)c2)CC1 [Example 442] | < 0.1 µM | < 1 µM
N#CCNC(=O)C(=O)NCc1ccccc1C(=O)NC1(c2ccc(F)c(Br)c2)CC1 [Example 217] | 0.1 to 1 µM | > 10 µM
N#Cc1cc(-c2cnn(C3CC3)c2)c(F)c(C2(NC(=O)c3ccccc3CNC(=O)C(=O)NCC#Cc3nccs3)CC2)c1 [Example 301] | < 0.1 µM | < 1 µM
C[C@@H](C#Cc1ccc(C#N)cc1F)NC(=O)C(=O)NCc1ccccc1C(=O)NC1(c2cc(F)cc(-c3cnn(C4CC4)c3)c2)CC1 [Example 145] | < 0.1 µM | < 1 µM
O=C(NCC#Cc1nccs1)C(=O)NCc1ccccc1C(=O)NC1(c2cc(F)cc(-c3cnn(C4CC4)c3)c2F)CC1 [Example 313] | < 0.1 µM | < 1 µM
